Data set [1] has as its system C. glabrata ATCC 90030 and 24 clinical isolates. More on the design: method as in PMID 26092104. Conditions: ref [8], cited from earlier work.
For data set [2], the system named is C. glabrata ATCC 90030. As to the kind of experiment: MIC90/MFC, EUCAST broth microdilution. Conditions: Nakaseomyces glabratus, ATCC90030, ATCC 90030; for MFC: read-out: MFC; for MIC90: read-out: MIC90. The format is cell-based, Candida glabrata.
Data set [3] relates to C. glabrata 2586 clinical strain. Put plainly: MIC90/MFC, EUCAST broth microdilution. The format is cell-based, Candida glabrata. As to conditions: Nakaseomyces glabratus; for MFC: read-out: MFC; for MIC90: read-out: MIC90.
Data set [4] deals with C. glabrata 2853 clinical strain. As to the kind of experiment: MIC90/MFC, EUCAST broth microdilution. As to conditions: Nakaseomyces glabratus; for MFC: read-out: MFC; for MIC90: read-out: MIC90. The format is cell-based, Candida glabrata. For orientation: Broth dilution looks for growth in wells or tubes with falling amounts of substance.
The test system of data set [5] is C. glabrata ATCC 90030. Put plainly: FICI checkerboard, β-aescin with antifungal drugs. The format is cell-based, Candida glabrata. As to conditions: for FICI: combination with β-aescin.
Data set [6] deals with C. glabrata 2586. As to the kind of experiment: FICI checkerboard, β-aescin with antifungal drugs. The format is cell-based, Candida glabrata. Conditions: combination with β-aescin.
Data set [7] relates to C. glabrata 2853. As to the kind of experiment: FICI checkerboard, β-aescin with antifungal drugs. The format is cell-based, Candida glabrata. Conditions: for FICI: combination with β-aescin.
In data set [8] the test system is C. glabrata ATCC 90030. As to the kind of experiment: Interaction of AABs (3 µM) with antifungal agents, modified checkerboard. As to conditions: for Multiplicity factor (MF) with C9: C9 3 µM, |MF| = MIC90 alone/MIC90 with AAB; for MIC90 of antimycotic combined with C9: C9 at constant 3 µM; for MIC90 of antimycotic combined with C9 / MIC90 of antimycotic combined with C11 / MIC90 of antimycotic combined with C13 / MIC90 of antimycotic combined with C15: dilutions in µg/mL; for Multiplicity factor (MF) with C11: C11 3 µM; for MIC90 of antimycotic combined with C11: C11 at constant 3 µM; for Multiplicity factor (MF) with C13: C13 3 µM; for MIC90 of antimycotic combined with C13: C13 at constant 3 µM; for Multiplicity factor (MF) with C15: C15 3 µM; for MIC90 of antimycotic combined with C15: C15 at constant 3 µM. The format is cell-based, Candida glabrata.

Data set [9] deals with C. glabrata 2586. The description is as above. The format is cell-based, Candida glabrata. As to conditions: for Multiplicity factor (MF) with C9: C9 3 µM; for Multiplicity factor (MF) with C11: C11 3 µM; for MIC90 of antimycotic combined with C11: C11 at constant 3 µM; for Multiplicity factor (MF) with C13: C13 3 µM; for MIC90 of antimycotic combined with C13: C13 at constant 3 µM; for Multiplicity factor (MF) with C15: C15 3 µM; for MIC90 of antimycotic combined with C15: C15 at constant 3 µM.

Data set [10] has as its system C. glabrata 2853. Described as above. The format is cell-based, Candida glabrata. Conditions: for Multiplicity factor (MF) with C9: C9 3 µM; for MIC90 of antimycotic combined with C9: C9 at constant 3 µM; for MIC90 of antimycotic combined with C9 / MIC90 of antimycotic combined with C11 / MIC90 of antimycotic combined with C13 / MIC90 of antimycotic combined with C15: dilutions in µg/mL; for Multiplicity factor (MF) with C11: C11 3 µM; for MIC90 of antimycotic combined with C11: C11 at constant 3 µM; for Multiplicity factor (MF) with C13: C13 3 µM; for MIC90 of antimycotic combined with C13: C13 at constant 3 µM; for Multiplicity factor (MF) with C15: C15 3 µM; for MIC90 of antimycotic combined with C15: C15 at constant 3 µM.

For data set [11], the system named is C. glabrata strains (ATCC 90030, 2586, 2853). As to the kind of experiment: Interaction of AABs with antifungal agents, statements for all tested strains together. As to conditions: all of the tested C. glabrata strains; AABs 3 µM. The format is cell-based, Candida glabrata.
Data set [12] deals with biofilms of C. glabrata DSM 1226 and two clinical isolates. More on the design: method as in PMID 37508306. As to conditions: combination with β-AE; biofilms of three strains; ref [12]; cited from earlier work.
On the set-up of data set [13]: method as in doi:10.1007/BF02673395. Conditions: ref [48]; cited from earlier work.
For another data set, the system named is C. albicans. More on the design: method as in doi:10.1016/j.carbpol.2003.10.001. Conditions: C. albicans among organisms tested; ref [35]; cited from earlier work.

≈ marks a conversion by molar mass, not a printed value. Read-outs that look alike come from different tables or passages of the source.

As for `C[C@@H]1[C@H](O)[C@@H](C)/C=C/C=C/CC/C=C/C=C/C=C/C=C/C(O[C@H]2O[C@H](C)[C@@H](O)[C@H](N)[C@@H]2O)CC2O[C@](O)(CC(O)C(O)CCC(O)CC(O)CC(O)CC(=O)O[C@H]1C)CC(O)C2C(=O)O` (stereo partly drawn) [nystatin], the “Fold reduction of MIC” value in data set [1] (subinhibitory concentrations of β-AE crystalline) is recorded as 2–16 fold; in data set [1] (subinhibitory concentrations of β-AE sodium) it was 2–4 fold.

For `CCC(C)n1ncn(-c2ccc(N3CCN(c4ccc(OCC5COC(Cn6cncn6)(c6ccc(Cl)cc6Cl)O5)cc4)CC3)cc2)c1=O` (stereo not drawn) [Itraconazole], the MFC (with C. glabrata ATCC 90030 [2]; in data set [3]; in [4]) was 4100 µg/mL (≈ 5.8 mM) each time. The MIC90 (in the data set with C. glabrata ATCC 90030 [2]; in data set [3]; in data set [4]) was 4100 µg/mL (≈ 5.8 mM) each time. For the same molecule, the FICI is 1.004 in the data set with C. glabrata ATCC 90030 [5], 1.004 in the data set with C. glabrata 2586 [6], 1.004 with C. glabrata 2853 [7] and at most 0.5 in data set [12]. Besides, the “Multiplicity factor (MF) with C9” value in the data set on C. glabrata ATCC 90030 [8], in the data set on C. glabrata 2586 [9] and in the data set on C. glabrata 2853 [10] was 1 in each case. Also, the “MIC90 of antimycotic combined with C9” value in the data set with C. glabrata ATCC 90030 [8] is given as 4096; in the data set on C. glabrata 2586 [9] (C9 at constant 3 µM, dilutions in µg/mL), 4096; with C. glabrata 2853 [10], 4096. Besides, the “Multiplicity factor (MF) with C11” value with C. glabrata ATCC 90030 [8], in the data set with C. glabrata 2586 [9] and in the data set on C. glabrata 2853 [10] was 1 throughout. For the same molecule, the “MIC90 of antimycotic combined with C11” value in the data set with C. glabrata ATCC 90030 [8], in the data set with C. glabrata 2586 [9] (dilutions in µg/mL) and in the data set on C. glabrata 2853 [10] was 4096 throughout. The “Multiplicity factor (MF) with C13” value in the data set on C. glabrata ATCC 90030 [8], in the data set with C. glabrata 2586 [9] and with C. glabrata 2853 [10] was 1 in each case. Besides, the “MIC90 of antimycotic combined with C13” value with C. glabrata ATCC 90030 [8], in the data set with C. glabrata 2586 [9] (dilutions in µg/mL) and in the data set with C. glabrata 2853 [10] was 4096 throughout. Besides, the “Multiplicity factor (MF) with C15” value with C. glabrata ATCC 90030 [8], in the data set with C. glabrata 2586 [9] and in the data set with C. glabrata 2853 [10] was 1 throughout. The “MIC90 of antimycotic combined with C15” value in the data set on C. glabrata ATCC 90030 [8], in the data set with C. glabrata 2586 [9] (dilutions in µg/mL) and in the data set with C. glabrata 2853 [10] was 4096 each time. The “MF with AABs” value in [11] is reported as 1.

With N-hexadecylamidepropylbetaine, the Krafft point in data set [13] is 16 °C.

`OC(Cn1cncn1)(Cn1cncn1)c1ccc(F)cc1F` [Fluconazole]: the minimal fungicidal concentration (MFC) (in the data set on C. glabrata ATCC 90030 [2]; in data set [3]; in data set [4]) was 2050 µg/mL (≈ 6.69 mM) in each case. Moreover, the figures for the MIC90 (in the data set with C. glabrata ATCC 90030 [2]; in [3]; in data set [4]) were 2050 µg/mL (≈ 6.69 mM), 2050 µg/mL (≈ 6.69 mM) and 32 µg/mL (≈ 0.104 mM), respectively. Besides, the “Type of interaction with β-AE (by FICI)” value with C. glabrata ATCC 90030 [5] is recorded as “synergistic”; in the data set with C. glabrata 2853 [7] it was “additive”. The FICI in the data set on C. glabrata ATCC 90030 [5] was 0.25; in the data set with C. glabrata 2586 [6], 1.25; with C. glabrata 2853 [7] it was 0.75; in data set [12] it was at most 0.5. Moreover, the “Multiplicity factor (MF) with C9” value was 16 in the data set on C. glabrata ATCC 90030 [8], 8 in the data set on C. glabrata 2586 [9], 1 with C. glabrata 2853 [10] and “did not interact” in the data set with C. glabrata 2853 [10] (listed as fluconazole). Further, the “MIC90 of antimycotic combined with C9” value in the data set on C. glabrata ATCC 90030 [8] is listed as 128; with C. glabrata 2853 [10], 32. The “Multiplicity factor (MF) with C11” value stood at 64 in the data set with C. glabrata ATCC 90030 [8], 64 with C. glabrata 2586 [9] and 2 with C. glabrata 2853 [10]. Besides, the “MIC90 of antimycotic combined with C11” value in the data set with C. glabrata ATCC 90030 [8] is 32; with C. glabrata 2586 [9] (dilutions in µg/mL) it was 32; in the data set on C. glabrata 2853 [10] it was 16. In addition, the figures for the “Multiplicity factor (MF) with C13” value with C. glabrata ATCC 90030 [8], in the data set with C. glabrata 2586 [9] and in the data set with C. glabrata 2853 [10] were 64, 64 and 2, respectively. The “MIC90 of antimycotic combined with C13” value with C. glabrata ATCC 90030 [8] was 32; in the data set on C. glabrata 2586 [9] (dilutions in µg/mL) it was 32; in the data set on C. glabrata 2853 [10] it was 16. Moreover, the figures for the “Multiplicity factor (MF) with C15” value in the data set with C. glabrata ATCC 90030 [8], in the data set with C. glabrata 2586 [9] and in the data set on C. glabrata 2853 [10] were 64, 64 and 16, respectively. In addition, the “MIC90 of antimycotic combined with C15” value is recorded as 32 with C. glabrata ATCC 90030 [8], 32 with C. glabrata 2586 [9] (dilutions in µg/mL) and 2 in the data set on C. glabrata 2853 [10].

Take “C12–C18 alkyl amido propyl dimethylamine betaine [AAPDB]”: the Antimicrobial activity result with C. albicans is listed as “active”.

These data come from publication PMC10932281, “A Combination of β-Aescin and Newly Synthesized Alkylamidobetaines as Modern Components Eradicating the Biofilms of Multidrug-Resistant Clinical Strains of Candida glabrata” (International Journal of Molecular Sciences, 2024).
